Assays:
[1] = system: harmaline-induced tremor; test: Harmaline-induced tremor assay; assay type: in vivo, ICR mice; settings: mice, harmaline 30 mg/kg s.c.; oral doses noted; p<0.05; mpk=mg/kg
Description: The harmaline-induced tremor assay is the primary preclinical model of induced tremor. Male ICR mice (10 weeks old) were used in this study. Mice were group housed in OPTI mouse ventilated cages. All animals remained group housed during the duration of the study. All mice were acclimated to the colony room for at least one week prior to testing. During the period of acclimation, mice were examined on a regular basis, handled, and weighed to assure adequate health and suitability. Mice were maintained on a 12/12 light/dark cycle. The room temperature was maintained between 20 and 23° C. with a relative humidity maintained between 30% and 70%. Chow and water were provided ad libitum for the duration of the study. In each test, animals were randomly assigned across treatment groups. Ten mice were tested in each group. […] After habituation, tremor activity of the mice was measured for approximately 8 min. The recorded frequencies (1-64 Hz) of activity and the number of tremor events were captured electronically. Data were analyzed by the tremor monitor software (San Diego Instruments) in a two part process. Using a Fast Fourier Transform (FFT), an output is provided showing the percentage of activity (energy) recorded at each frequency. […] Data were analyzed by analysis of variance (ANOVA) followed by Fisher PLSD post-hoc analysis. […]

[2] = system: pilocarpine-induced convulsive status epilepticus; test: Pilocarpine rat model (initial qualitative efficacy screen); assay type: in vivo, Sprague Dawley rats; settings: i.p., administered after seizure onset, mpk=mg/kg
Procedure: Compounds are assessed for their ability to halt pilocarpine-induced convulsive status epilepticus (SE). To identify doses of drug to be used in the SE testing, acute motor impairment is assessed following the intraperitoneal (i.p.) administration of doses starting at 100 and 300 mg/kg. Individual Sprague Dawley rats are evaluated for acute toxicity over several time points following administration of test compounds. The results obtained from this initial study determine whether any dose adjustments are required. The behavior of the animals is observed closely and recorded over a four hour period. Routinely, a minimum number of four rats, two per dose are employed in this acute screen.
To determine if the test substance can halt acute pilocarpine-induced status an initial qualitative efficacy screen is performed. A challenge dose of pilocarpine (50 mg/kg) is administered i.p. and animals observed until the first convulsive (e.g., Stage 3, 4, or 5) seizure (time zero). The seizure severity is determined using the Racine scale. At this point a minimally toxic dose of the candidate drug is administered to a group of 8 male albino Sprague Dawley rats (150-180 g) via the i.p. route of administration. Efficacy is defined by the ability of an investigational drug to halt the further expression of pilocarpine induced convulsive seizures (e.g., Stage 3, 4, or 5). […] In this test, the investigational drug is administered 30 minutes after the first observed convulsive seizure. This is a more severe test of a candidate's ability to halt the induced status. […] A minimum of 4 doses with at least 8 rats per dose are utilized in the quantification study.

[3] = system: hippocampal-kindled focal seizures; test: Hippocampal-kindled rat test (focal seizures); assay type: in vivo, rats; settings: i.p. injection
Procedure: Electrodes are implanted into the hippocampus of anesthetized rats, which are then allowed to recover for 1 week. Following the rapid kindling protocol (Lothman et al., Brain Res., 1994. 649:71-84), the rats are stimulated with […] for 10 s, 50 Hz, every 30 min for 6 h on alternate days until they are fully kindled (4-5 stimulus days). After 1 week of rest, the animals are given the same electrical stimulus, which served as a baseline. The animals are pretreated with the test compound (by i.p. injection) and then tested at various intervals. At each time point, the behavioral seizure score and after-discharge duration are recorded. The behavioral seizure scores are scored according to the following criteria (Racine, Electroencephalogr Clin Neurophysiol, 1972. 32(3):281-94): stage 1—mouth and facial clonus; stage 2—stage 1 plus head nodding; stage 3—stage 2 plus forelimb clonus; stage 4—stage 3 plus rearing, and stage 5—stage 4 plus repeated rearing and falling. The after-discharge threshold (ADT) can also be measured in the kindled rat. The ADT is defined as the lowest current at which an after-discharge of at least 4 s is elicited. […] The initial stimulation is conducted at an intensity of 20 μA with 10 μA increments every 1-2 min until an after-discharge was elicited. Fifteen minutes after the predrug threshold determination, a single dose of the test substance is administered to 2 animals in a volume of 0.04 ml/10 g body weight. In this way, the animals serve as their own control. The individual rat ADT is then determined at varying times (i.e., 0.25, 1, 2 and 4 h) after drug administration.

Structure (SMILES): O=C1OCCN1c1cn(Cc2c(F)cccc2F)nn1 [Compound 15a, 3-{1-[(2,6-difluorophenyl)methyl]-1H-1,2,3-triazol-4-yl}-1,3-oxazolidin-2-one]
- Dose showing significant reductions in total tremors [1]: 50 mpk

Structure (SMILES): CN(C)c1cn(Cc2c(F)cccc2F)nn1 [Compound 8a, [1-(2,6-difluoro-benzyl)-1H-[1,2,3]triazol-4-yl]-dimethyl-amine]
- Dose at which activity was shown [2]: 65 mpk
- ED50 [3]: ED50 25 mpk

Structure (SMILES): Fc1cccc(F)c1Cn1cc(N2CCOCC2)nn1 [Compound 10a, 4-{1-[(2,6-difluorophenyl)methyl]-1H-1,2,3-triazol-4-yl}morpholine]
- Dose at which activity was shown [2]: 65 mpk
- ED50 [3]: ED50 32 mpk

Structure (SMILES): Fc1cccc(F)c1Cn1cc(N2CCCC2)nn1 [Compound 10f, 1-[(2,6-difluorophenyl)methyl]-4-(pyrrolidin-1-yl)-1H-1,2,3-triazole]
- Dose at which activity was shown [2]: 65 mpk

Structure (SMILES): N[C@@H](Cc1ccccc1)C(=O)Nc1cn(Cc2c(F)cccc2F)nn1 [Compound 3a, (2S)-2-amino-N-{1-[(2,6-difluorophenyl)methyl]-1H-1,2,3-triazol-4-yl}-3-phenylpropanamide]
- Dose at which activity was shown [2]: 200 mpk
- active at (dose) [3]: active at 200 mpk

Structure (SMILES): O=C1NCCN1c1cn(Cc2c(F)cccc2F)nn1 [Compound 16a, 1-{1-[(2,6-difluorophenyl)methyl]-1H-1,2,3-triazol-4-yl}imidazolidin-2-one]
- active at (dose) [3]: active at 100 mpk

Structure (SMILES): O=C(Nc1cn(Cc2c(F)cccc2F)nn1)[C@H]1COCCN1 [Compound 3d, (3R)—N-{1-[(2,6-difluorophenyl)methyl]-1H-1,2,3-triazol-4-yl}morpholine-3-carboxamide]
- Dose at which activity was shown [2]: 450 mpk
- ED50 [3]: ED50 79 mpk

Structure (SMILES): O=C(Nc1cn(Cc2c(F)cccc2F)nn1)[C@@H]1COCCN1 [Compound 3c, (3S)—N-{1-[(2,6-difluorophenyl)methyl]-1H-1,2,3-triazol-4-yl}morpholine-3-carboxamide]
- active at (dose) [3]: active at 50 mpk

Structure (SMILES): O=C1CCCN1c1cn(Cc2c(F)cccc2F)nn1 [Compound 14a, 1-{1-[(2,6-difluorophenyl)methyl]-1H-1,2,3-triazol-4-yl}pyrrolidin-2-one]
- Dose showing significant reductions in total tremors [1]: 50 mpk

Source: patent publication US10138214B2, “Substituted triazoles and methods relating thereto” (Neurocrine Biosciences, Inc., priority 2015, dated 2018)
